According to patent US11130726B2, “Therapeutic compounds and methods of use thereof” (GENENTECH, INC., priority 2015, dated 2021):

These molecules were tested against T1, hNav1.7 (Homo sapiens, UniProt Q15858) (assay: Tritiated compound competitive binding to membranes from cells heterologously expressing hNav1.7 and the β1 subunit (LBA)). Conditions: read-out: NaV1.7 (LBA).
T1 construct: expressed in transfected cells
T1 sequence (Q15858 whole entry): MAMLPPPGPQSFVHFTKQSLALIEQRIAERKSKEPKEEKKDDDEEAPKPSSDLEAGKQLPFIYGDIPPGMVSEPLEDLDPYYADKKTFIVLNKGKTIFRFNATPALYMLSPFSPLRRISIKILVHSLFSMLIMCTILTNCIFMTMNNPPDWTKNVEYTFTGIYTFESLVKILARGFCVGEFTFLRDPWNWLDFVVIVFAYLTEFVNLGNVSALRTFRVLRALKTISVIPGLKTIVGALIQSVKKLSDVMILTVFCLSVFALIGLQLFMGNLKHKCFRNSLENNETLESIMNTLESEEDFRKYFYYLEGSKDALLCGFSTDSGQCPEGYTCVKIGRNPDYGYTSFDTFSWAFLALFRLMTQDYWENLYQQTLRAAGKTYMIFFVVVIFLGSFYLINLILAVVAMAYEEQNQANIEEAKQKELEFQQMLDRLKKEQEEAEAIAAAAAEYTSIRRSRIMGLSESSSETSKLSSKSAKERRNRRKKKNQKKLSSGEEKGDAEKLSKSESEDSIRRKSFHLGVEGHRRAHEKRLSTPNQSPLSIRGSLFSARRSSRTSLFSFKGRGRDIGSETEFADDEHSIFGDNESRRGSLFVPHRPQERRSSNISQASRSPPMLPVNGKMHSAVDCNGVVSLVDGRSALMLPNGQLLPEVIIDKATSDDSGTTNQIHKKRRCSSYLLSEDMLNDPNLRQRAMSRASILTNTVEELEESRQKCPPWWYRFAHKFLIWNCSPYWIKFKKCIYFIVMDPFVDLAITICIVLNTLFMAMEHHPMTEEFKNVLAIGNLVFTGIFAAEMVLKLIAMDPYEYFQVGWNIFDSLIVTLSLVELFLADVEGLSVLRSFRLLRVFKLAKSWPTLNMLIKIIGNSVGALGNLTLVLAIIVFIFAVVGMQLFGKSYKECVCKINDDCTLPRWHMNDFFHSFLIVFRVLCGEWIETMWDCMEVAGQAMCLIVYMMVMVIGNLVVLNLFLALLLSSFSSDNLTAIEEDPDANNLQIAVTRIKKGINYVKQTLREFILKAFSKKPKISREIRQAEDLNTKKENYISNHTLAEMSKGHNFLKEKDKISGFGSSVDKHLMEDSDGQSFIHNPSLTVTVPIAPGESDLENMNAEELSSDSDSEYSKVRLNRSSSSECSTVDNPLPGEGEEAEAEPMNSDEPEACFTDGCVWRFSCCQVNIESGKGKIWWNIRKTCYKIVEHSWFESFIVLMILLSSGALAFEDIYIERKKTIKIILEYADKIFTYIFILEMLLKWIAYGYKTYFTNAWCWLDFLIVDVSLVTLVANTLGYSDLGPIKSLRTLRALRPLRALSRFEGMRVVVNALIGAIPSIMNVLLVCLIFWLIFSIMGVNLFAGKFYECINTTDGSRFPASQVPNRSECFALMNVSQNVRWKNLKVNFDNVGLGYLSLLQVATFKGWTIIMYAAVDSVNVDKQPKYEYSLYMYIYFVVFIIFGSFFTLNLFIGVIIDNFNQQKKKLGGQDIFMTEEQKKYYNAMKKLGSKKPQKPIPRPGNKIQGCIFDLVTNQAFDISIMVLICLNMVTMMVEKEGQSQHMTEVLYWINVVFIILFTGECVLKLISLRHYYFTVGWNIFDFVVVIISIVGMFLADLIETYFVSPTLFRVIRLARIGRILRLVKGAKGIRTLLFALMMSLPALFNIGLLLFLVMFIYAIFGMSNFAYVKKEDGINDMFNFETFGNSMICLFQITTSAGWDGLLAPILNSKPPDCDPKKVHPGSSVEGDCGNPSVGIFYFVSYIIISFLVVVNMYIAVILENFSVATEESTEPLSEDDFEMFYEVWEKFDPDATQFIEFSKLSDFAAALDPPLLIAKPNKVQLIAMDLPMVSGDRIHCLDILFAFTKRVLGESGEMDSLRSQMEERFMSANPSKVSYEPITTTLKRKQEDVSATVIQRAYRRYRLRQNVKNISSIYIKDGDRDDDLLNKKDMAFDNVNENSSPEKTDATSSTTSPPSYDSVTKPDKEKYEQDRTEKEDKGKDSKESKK
T1 sequence (Q07699 19-218 partner): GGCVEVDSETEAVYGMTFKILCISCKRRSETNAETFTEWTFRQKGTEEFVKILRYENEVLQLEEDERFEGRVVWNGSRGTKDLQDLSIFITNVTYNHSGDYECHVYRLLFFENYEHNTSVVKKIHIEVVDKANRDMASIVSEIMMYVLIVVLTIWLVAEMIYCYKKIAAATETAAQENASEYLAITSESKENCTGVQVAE
Procedure: Example 19 Tritiated Compound Binding to Membranes Isolated from Cells that Heterologously Express hNav1.7 and the β1 Subunit
Preparation of membranes containing recombinantly expressed sodium channels: Frozen recombinant cell pellets were thawed on ice and diluted to 4 times the cell pellet weight with ice cold 50 mM Tris HCl, pH 7.4 buffer. The cell suspensions were homogenized on ice using a motorized glass dounce homogeniser. Homogenates were further diluted 8.4 times with ice cold 50 mM Tris HC1, pH 7.4 buffer and then centrifuged at 200× g at 4° C. for 15 min. The supernatants were collected and centrifuged at 10000× g at 4° C. for 50 min. The pellets were then re-suspended in 100 mM NaCl, 20 mM Tris HCl, pH 7.4 buffer containing 1% v/v protease inhibitors (Calbiochem) and re-homogenized on ice. The homogenized membranes were then processed through a syringe equipped with a 26 gauge needle. Protein concentrations were determined by Bradford Assay and the membranes were stored at −80° C.
Radioligand Binding Studies: Saturation experiments. A competitive NaV1.7 inhibitor having a methyl group was tritiated. Three tritiums were incorporated in place of methyl hydrogens to generate[^3H]compound. Binding of this radioligand was performed in 5 mL borosilicate glass test tubes at room temperature. Binding was initiated by adding membranes to increasing concentrations of [^3H]compound in 100 mM NaCl, 20 mM Tris HCl, pH 7.4 buffer containing 0.01% w/v bovine serum albumin (BSA) for 18 h. Non-specific binding was determined in the presence of 1 μM unlabeled compound. After 18 h, the reactants were filtered through GF/C glass fiber filters presoaked in 0.5% w/v polyethylene imine. Filters were washed with 15 mL ice cold 100 mM NaCl, 20 mM Tris HCl, pH7.4 buffer containing 0.25% BSA to separate bound from free ligand. [^3H]compound bound to filters was quantified by liquid scintillation counting.
Competitive binding experiments: Binding reactions were performed in 96-well polypropylene plates at room temperature for 18 h. In 360 μL, membranes were incubated with 100 pM [^3H]compound and increasing concentrations of Test Compound. Non-specific binding was defined in the presence of 1 μM unlabeled compound. Reactions were transferred and filtered through 96-well glass fiber/C filter plates presoaked with 0.5% polyethylene imine. The filtered reactions were washed 5 times with 200 μL ice cold buffer containing 0.25% BSA. Bound radioactivity was determined by liquid scintillation counting.
Data Analysis: For saturation experiments, non-specific binding was subtracted from total binding to provide specific binding and these values were recalculated in terms of pmol ligand bound per mg protein. Saturation curves were constructed and dissociation constants were calculated using the single site ligand binding model: Beq=(Bmax*X)/(X+Kd), where Beq is the amount of ligand bound at equilibrium, Bmax is the maximum receptor density, Kd is the dissociation constant for the ligand, and X is the free ligand concentration. For competition studies percent inhibition was determined and IC50 values were calculated using a 4 parameter logistic model (% inhibition=(A+((B−A)/(1+((x/C)^D)))) using XLfit, where A and B are the maximal and minimum inhibition respectively, C is the IC50 concentration and D is the (Hill) slope.
In the case of O=C(O)C1CCCC1Nc1cc(Cl)c(OCC23CC4CC(CC(C4)C2)C3)cc1F (stereo not drawn) [Example 17, 2-((4-adamant-1-ylmethoxy)-5-chloro-2-fluoro-anilino)cyclopentanecarboxylic acid], the IC50 is reported as 3020 nM. With O=C(O)[C@@H]1CCC[C@H]1C(=O)c1cc(C2CC2)c(COc2cc(Cl)cc(Cl)c2)cc1F (relative stereo) [Example 10, (1,2-trans)-2-(5-cyclopropyl-4-((3,5-dichlorophenoxy)methyl)-2-fluorobenzoyl)cyclopentane-1-carboxylic acid] the IC50 was 21 nM. O=C(O)[C@@H]1CCC[C@H]1C(=O)c1cc(C2CC2)c(OCC23CC4CC(CC(C4)C2)C3)cc1F [Example 1] showed an IC50 of 9 nM. C[C@@H]1CC[C@H](C(=O)c2cc(C3CC3)c(OCC34CC5CC(CC(C5)C3)C4)cc2F)[C@H]1C(=O)O [Example 12] gave an IC50 of 3 nM. Molecule O=C(O)[C@@H]1CCC[C@H]1C(=O)c1cc(C2CC2)c(OCc2ccccc2)cc1F (relative stereo) [Example 8, trans-2-(4-(benzyloxy)-5-cyclopropyl-2-fluorobenzoyl)-cyclopentane-1-carboxylic acid] has an IC50 of 860 nM. C[C@H]1CC[C@@H](C(=O)c2cc(C3CC3)c(OCC34CC5CC(CC(C5)C3)C4)cc2F)[C@@H]1C(=O)O [Example 11] showed an IC50 of 700 nM. Molecule O=C(O)[C@@H]1CCC[C@H]1C(=O)c1cc(C2CC2)c(OCC2CCN(Cc3cc(C(F)(F)F)ccc3Cl)CC2)cc1F [Example 13, (1R,2R)-2-(4-((1-(2-chloro-5-(trifluoromethyl)benzyl)piperidin-4-yl)methoxy)-5-cyclopropyl-2-fluorobenzoyl)cyclopentane-1-carboxylic acid] has an IC50 of 21 nM. In the case of O=C(O)[C@H]1CCC[C@@H]1C(=O)c1cc(C2CC2)c(OCC23CC4CC(CC(C4)C2)C3)cc1F [Example 2], the IC50 is reported as 510 nM. O=C(c1cc(Cl)c(OCC23CC4CC(CC(C4)C2)C3)cc1F)[C@H]1CCC[C@H]1C(=O)O [Example 3] was tested, and the IC50 was 4200 nM. Work on O=C(O)C1CCCC1Sc1cc(Cl)c(OCC23CC4CC(CC(C4)C2)C3)cc1F (stereo not drawn) [Example 14] yielded an IC50 of 2630 nM. In the case of CN(c1cc(Cl)c(OCC23C[C@H]4C[C@@H](C2)C[C@@H](C3)C4)cc1F)[C@@H]1CCC[C@H]1C(=O)O (relative stereo) [Example 18, 2-(4-(1-adamantylmethoxy)-5-chloro-2-fluoro-N-methylanilino)-cyclopentanecarboxylic acid], the IC50 is reported as > 10000 nM. Molecule O=C(O)[C@@H]1CCC[C@H]1[S+]([O-])c1cc(Cl)c(OCC23CC4CC(CC(C4)C2)C3)cc1F (stereo in doubt) [Example 16] has an IC50 of 1290 nM. For O=C(O)[C@@H]1CC[C@H]1C(=O)c1cc(C2CC2)c(OCC23CC4CC(CC(C4)C2)C3)cc1F (racemic) [Example 7], the IC50 was 760 nM. O=C(O)[C@@H]1CCC[C@H]1Cc1cc(C2CC2)c(OCC23CC4CC(CC(C4)C2)C3)cc1F [Example 5] showed an IC50 of 3100 nM. In the case of O=C(O)[C@@H]1CCCC[C@H]1C(=O)c1cc(C2CC2)c(OCC23CC4CC(CC(C4)C2)C3)cc1F [Example 6], the IC50 is reported as 55 nM. For C[C@@H](c1cc(Cl)cc(Cl)c1)N1CCC(COc2cc(F)c(C(=O)[C@@H]3CCC[C@H]3C(=O)O)cc2C2CC2)CC1 [Example 9, (1,2-trans)-2-(5-cyclopropyl-4-((1-((S)-1-(3,5-dichlorophenyl)ethyl)piperidin-4-yl)methoxy)-2-fluorobenzoyl)cyclopentane-1-carboxylic acid], the IC50 was 51 nM. O=C(O)[C@@H]1CCC[C@H]1C(=O)c1cc(Cl)c(OCC23CC4CC(CC(C4)C2)C3)cc1F [Example 4] gave an IC50 of 440 nM. Molecule O=C(O)[C@@H]1CCC[C@H]1S(=O)(=O)c1cc(Cl)c(OCC23CC4CC(CC(C4)C2)C3)cc1F (racemic) [Example 15] has an IC50 of 454 nM.
